Measurements taken from publication PMC8780741, “Integration of In Silico, In Vitro and In Situ Tools for the Preformulation and Characterization of a Novel Cardio-Neuroprotective Compound during the Early Stages of Drug Development” (Pharmaceutics, 2022).
Like-named read-outs stand apart in the source and are kept apart here.

What was measured:
[1] = Apparent permeability across MDCK monolayers; type: in vitro ADME, Canine; settings: dog, 37 °C, stirring at 50 rpm
Method: (§1) MDCK (Madin–Darby Canine Kidney) cells, their transfected clone MDCK-MDR1, and Caco-2 cells were grown in the modified Dulbecco Eagle medium added with L-glutamine, fetal bovine serum and penicillin−streptomycin. The number of cells seeded in transwells with a surface area of 4.2 cm^2 depended on the cell line: 250,000 cells/cm^2 for MDCK and Caco-2 and 150,000 cells/cm^2 for MDCK-MDR1. Experiments were performed between 7 and 9 days for MDCK and MDCK-MDR1 and between 19 and 21 for Caco-2 cells after seeding. Prior to drug placement, cell monolayer integrity was assessed by measuring transepithelial electrical resistance (TEER). Transport studies were performed on an orbital shaker at 37 °C and 50 rpm. Four samples of 200 μL were taken from the receptor side at 0, 15, 30, 60 and 90 min, and two samples from the donor compartment at the beginning and end of the experiment. A standard experiment was performed with the same buffer for the apical and basolateral compartments in the apical to basolateral (A-B) and basolateral to apical (B-A) directions. The drug concentration was 100 μM in all experiments and samples were analyzed immediately by HPLC. The retention time was 2.3 min at maximum wavelengths (λmax = 260 nm). […] The lower limit of quantitation of JM-20 was adequate to interpolate the values obtained in the samples. […]

[2] = set-up: method as in product owner (technical report); settings: ref product owner (technical report); cited from earlier work
[3] = Apparent permeability across Caco-2 monolayers; type: in vitro ADME; settings: human
Method: MDCK (Madin–Darby Canine Kidney) cells, their transfected clone MDCK-MDR1, and Caco-2 cells were grown in the modified Dulbecco Eagle medium added with L-glutamine, fetal bovine serum and penicillin−streptomycin. The number of cells seeded in transwells with a surface area of 4.2 cm^2 depended on the cell line: 250,000 cells/cm^2 for MDCK and Caco-2 and 150,000 cells/cm^2 for MDCK-MDR1. Experiments were performed between 7 and 9 days for MDCK and MDCK-MDR1 and between 19 and 21 for Caco-2 cells after seeding. Prior to drug placement, cell monolayer integrity was assessed by measuring transepithelial electrical resistance (TEER). Transport studies were performed on an orbital shaker at 37 °C and 50 rpm. Four samples of 200 μL were taken from the receptor side at 0, 15, 30, 60 and 90 min, and two samples from the donor compartment at the beginning and end of the experiment. A standard experiment was performed with the same buffer for the apical and basolateral compartments in the apical to basolateral (A-B) and basolateral to apical (B-A) directions. The drug concentration was 100 μM in all experiments and samples were analyzed immediately by HPLC. The retention time was 2.3 min at maximum wavelengths (λmax = 260 nm). The conditions used for HPLC analyses were: mobile phase composed of a mixture of 50% H2O (95% H2O + 0.5% trifluoroacetic) and another 50% HPLC-grade methanol. The stationary phase composed of a Phenomenex® KJ0-4282 column, with two 2 μm filters filled with C-18 microparticles of 40 μm size and a Nova Pak C-18 stainless-steel column of 150 mm length. […] The lower limit of quantitation of JM-20 was adequate to interpolate the values obtained in the samples.
The apparent permeability coefficient was calculated according to the following Equation (2):(2) Creceiver,t=Qtotal/Vreceiver+Vdonor+Creceiver,t−1·f−Qtotal/Vreceiver+Vdonor·e^−Peff0,1·S·1/Vreceiver+1/Vdonor·Δt where Creceiver,t is the concentration of the drug in the receiver compartment at the time t, Qtotal is the total amount of drug in receiver and donor chambers, Vreceiver and Vdonor are the volumes of receiver and donor chamber, respectively, Creceiver,t−1 is the concentration of the drug in receiver compartment at the previous time, f is the replacement dilution factor of the sample, S is the surface area of the monolayer, Δt is the time interval and Peff is the coefficient of permeability, as was described by Mangas-Sanjuan et al. All calculations were developed in Microsoft® Excel (2018).

[4] = Dissociation constant (pKa) by UV-spectrophotometric method; type: physicochemical; settings: aqueous buffer solutions
Method: The pH measurements were performed using a sensiON™ (PH31) pH meter. Standard solutions of JM-20 ([…] were prepared adding 0.2 mL of the stock solution in 9.8 mL of each buffer. UV-VIS spectra were recorded on a UV-Vis Spectrophotometer (Thermo Fisher GENESYS™ 10S, Shanghai, China) between 200 and 400 nm (2 nm of resolution). All spectrophotometric data were processed in Microsoft Excel (2018).
The experimental pKa was determined using the spectrophotometric method proposed by Salgado et al.. The absorbance spectra of the JM-20 were acquired at different pH levels. The wavelengths of maximum absorbance were determined at each pH. Using a plot of observed absorbance versus pH at these analytical wavelengths (262, 316 and 355 nm), the pKa values were calculated. To determine these points, the linear equations of the two points closest to the crossing at each curve were solved. The whole procedure was carried out in triplicate and at room temperature (23 ± 2 °C).

[5] = set-up: method as in earlier work; settings: pH 4.5 and 6.8, 24 h, 37 ± 1°C; cited from earlier work
rat small intestine = experiment: In situ closed-loop (Doluisio) intestinal perfusion; type: in vivo; settings: 100 µM, n = 4
Method: The animal experiments, performed on 250–300 g male Wistar rats, were designed following the guidelines described in EC Directive 86/609, Council of the Europe Convention ETS 123 and Spanish national laws about the use of animals in research, and were approved by the Spanish Committee (Spain, code A1330354541263).
The “closed-loop” in situ perfusion method, based on the Doluisio technique, was performed according to published reports. Briefly, in anesthetized rats in which an abdominal incision was made, the small intestine was located and the bile duct was ligated avoiding enterohepatic circulation of the drug. The procedure for making three loops in the duodenum, jejunum, and ileum was the same as previously described. Intestinal contents were removed by washing with physiological solutions and the peritoneal cavity was covered with cotton wool pads to prevent evaporation of peritoneal fluid and loss of body heat.
A solution of JM-20 (100 µM) was perfused with one syringe, and 5 min later the sample was collected with the other syringe. This procedure was performed alternatively for 30 min to ensure mixing of the solution in the lumen of small intestine. Samples were immediately analyzed for JM-20 at maximum wavelengths (λmax = 262 nm) by HPLC (Alliance-Waters 2695) using a Nova-Pak C18 column (4 μM, 3.9 × 150 mm) and UV detector (Waters 2487). The analytical procedure was as follows previously validated. The exact length of the intestine was determined at the end of the study.
The calculation of permeability takes into account that water flux during the experiment can be significant, the drug concentration in each sample was modified according to the following Equation (3):(3) C=CeVT/V0 where Ct represents the concentration without water reabsorption at time t, Ce is the experimental concentration value, V0 is the initial volume and Vt is the final volume. The coefficient of absorption rate (ka) and the initial concentration of JM-20 available for absorption (C0) were determined by non-linear regression of the following Equation (4):(4) Ct=C0·e^−kat […]

[6] = Apparent permeability across MDCK-MDR1 monolayers; type: in vitro ADME, Canine; settings: dog, 37 °C, stirring at 50 rpm
Method: as §1

[7] = set-up: method as in earlier work; settings: potentiometric titration; cited from earlier work

Papp A→B at 90 min, 100 µM [1]: 24.6 ± 1.1 ×10⁻⁶ cm/s | Papp B→A at 90 min, 100 µM [1]: 2.8 ± 7.1 ×10⁻⁶ cm/s | Papp A→B at 90 min, 100 µM ([3]; Caco-2, Caco-2, 100 μM, 37 °C, stirring at 50 rpm): 38.3 ± 1.8 ×10⁻⁶ cm/s | Papp at 90 min, 100 µM ([3]; Caco-2, read-out: Permeability, Caco-2 value (abstract)): 38 ×10⁻⁶ cm/s | Papp B→A at 90 min, 100 µM ([3]; Caco-2, 100 μM, 37 °C, stirring at 50 rpm): 8.5 ± 2.4 ×10⁻⁶ cm/s | efflux ratio at 90 min, 100 µM ([3]; Caco-2 bidirectional transport): 0.13 | pKa ([4]; pH 2 to 12, UV-spectrophotometric, 23 °C, ionic strength approximately 0.1 M, read-out: pKa1 (base)): 5.48 ± 0.19 | pKa ([4]; pH 2 to 12, UV-spectrophotometric, 23 °C, ionic strength approximately 0.1 M, read-out: pKa2 (acid)): 10.5 ± 0.17 | pKa ([4]; pH 2 to 12, measured pKa transformed to 37 °C (estimated), read-out: pKa1 at 37 °C): 5.54 | pKa ([4]; pH 2 to 12, measured pKa transformed to 37 °C (estimated), read-out: pKa2 at 37 °C): 10.3 | Peff ± SD (rat small intestine; Duodenum): 9.20 ± 0.89 ×10^−5 cm/s | Peff ± SD (rat small intestine; Ileum): 6.82 ± 1.44 ×10^−5 cm/s | Peff ± SD (rat small intestine; Jejunum): 6.63 ± 1.30 ×10^−5 cm/s | Papp A→B at 90 min, 100 µM [6]: 21.7 ± 2.2 ×10⁻⁶ cm/s | Papp B→A at 90 min, 100 µM [6]: 9.6 ± 0.5 ×10⁻⁶ cm/s
SMILES: CCOC(=O)C1=C(C)NC2=C(C=Nc3ccccc3N2)C1c1ccccc1[N+](=O)[O-] (stereo not drawn) [JM-20, 3-ethoxycarbonyl-2-methyl-4-(2-nitrophenyl)-4,11-dihydro-1H-pyrido [2,3-b][1,5] benzodiazepine]
Stability in DMSO and absolute ethanol [2]: stable | Qualitative stability in aqueous medium [5]: some degradation | pKa [7]: 5.25
